Measurements reported in US11629154B2, “Tetrahydropyranooxazine derivatives having selective BACE1 inhibitory activity” (SHIONOGI & CO., LTD., priority 2018, dated 2023).

How the values were obtained:
[1] = target: recombinant BACE1 protein (Homo sapiens (Human), UniProt P56817); assay: BACE1 biochemical FRET based assay; conditions: for Selectivity: BACE1 versus BACE2; for IC50: FRET, pH 5.0
Text: (1) BACE1 Biochemical FRET Based Assay
(§1) This assay is a Fluorescence Resonance Energy Transfer Assay (FRET) based assay. The substrate for this assay is an APP derived 13 amino acids peptide that contains the ‘Swedish’ Lys-Met/Asn-Leu mutation of the amyloid precursor protein (APP) beta-site secretase cleavage site. This substrate also contains two fluorophores: (7-methoxycoumarin-4-yl) acetic acid (Mca) is a fluorescent donor with excitation wavelength at 320 nm and emission at 405 nm and 2,4-dinitrophenol (Dnp) is a proprietary quencher acceptor. […] Upon cleavage by BACE1, the fluorophore Mca is separated from the quenching group Dnp, restoring the full fluorescence yield of the donor. The increase in fluorescence is linearly related to the rate of proteolysis.
Briefly in a 384-well format recombinant BACE1 protein in a final concentration of 0.04 μg/mL was incubated for 450 minutes at room temperature with […] substrate in incubation buffer (final concentrations: 33.3 mM Citrate buffer pH 5.0, 0.033% PEG, 3% DMSO) in the absence or presence of compound. Next the amount of proteolysis was directly measured by fluorescence measurement at T=0′-120′ and T=450′ (excitation at 320 nm and emission at 405 nm). Results were expressed in RFU (Relative Fluorescence Units), as difference between T450 and Tx (Tx is chosen depending on the reaction speed between 0 and 120 minutes).
(§2) A best-fit curve was fitted by a minimum sum of squares method to the plot of % Controlmin versus compound concentration. From this an IC50 value (inhibitory concentration causing 50% inhibition of activity) can be obtained.
(§3) LC=Median of the low control values
(§4) =Low control: Reaction without enzyme
(§5) HC=Median of the High control values
=High Control: Reaction with enzyme % Effect=100−[(sample−LC)/(HC−LC)*100] % Control=(sample/HC)*100 % Controlmin=(sample−LC)/(HC−LC)*100

[2] = target: recombinant BACE2 protein (Homo sapiens (Human), UniProt Q9Y5Z0); assay: BACE2 biochemical FRET based assay; conditions: pH 5.0
Sequence of recombinant BACE2 protein (Q9Y5Z0 63-518): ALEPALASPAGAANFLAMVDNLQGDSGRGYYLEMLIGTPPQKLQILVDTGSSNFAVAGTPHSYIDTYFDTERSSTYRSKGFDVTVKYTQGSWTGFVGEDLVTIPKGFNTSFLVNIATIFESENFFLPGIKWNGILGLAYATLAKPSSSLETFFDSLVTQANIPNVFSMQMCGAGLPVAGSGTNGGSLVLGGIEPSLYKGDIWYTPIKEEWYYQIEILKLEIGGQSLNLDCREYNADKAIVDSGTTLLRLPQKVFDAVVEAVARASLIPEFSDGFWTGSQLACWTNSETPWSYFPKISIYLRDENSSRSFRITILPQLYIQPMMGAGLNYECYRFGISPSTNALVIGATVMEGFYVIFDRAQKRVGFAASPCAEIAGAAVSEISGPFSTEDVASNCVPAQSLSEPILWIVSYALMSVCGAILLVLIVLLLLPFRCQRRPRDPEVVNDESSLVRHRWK
Text: (2) BACE2 Biochemical FRET Based Assay
as §1, with “assay” for “assay is an APP derived 13 amino acids peptide that”, “beta-secretase” for “beta-site secretase”, “the beta-secretase,” for “BACE1,”
Briefly in a 384-well format recombinant BACE2 protein in a final concentration of 0.4 μg/mL was incubated for 450 minutes at room temperature with 10 μM substrate in incubation buffer (final concentrations: 33.3 mM Citrate buffer pH 5.0, 0.033% PEG, 2% DMSO) in the absence or presence of compound. Next the amount of proteolysis was directly measured by fluorescence measurement at T=0 and T=450 (excitation at 320 nm and emission at 405 nm). Results were expressed in RFU (Relative Fluorescence Units), as difference between T450 and TO.
as §2, §3, §4, §5

Sequence of recombinant BACE1 protein (P56817 46-501): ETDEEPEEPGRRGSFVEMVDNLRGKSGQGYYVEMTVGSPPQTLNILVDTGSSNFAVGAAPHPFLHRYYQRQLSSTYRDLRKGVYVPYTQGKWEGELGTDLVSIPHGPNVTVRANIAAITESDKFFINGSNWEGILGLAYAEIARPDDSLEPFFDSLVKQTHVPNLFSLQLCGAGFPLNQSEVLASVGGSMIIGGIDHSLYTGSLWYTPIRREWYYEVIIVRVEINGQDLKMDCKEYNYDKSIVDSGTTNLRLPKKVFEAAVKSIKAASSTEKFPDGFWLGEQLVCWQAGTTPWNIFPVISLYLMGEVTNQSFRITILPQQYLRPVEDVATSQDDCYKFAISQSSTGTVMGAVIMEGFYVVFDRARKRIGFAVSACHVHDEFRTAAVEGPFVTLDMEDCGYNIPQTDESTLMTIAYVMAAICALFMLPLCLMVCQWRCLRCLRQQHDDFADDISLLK

Question: With `CC[C@@H]1OCC[C@H]2OC(N)=N[C@](CF)(c3cc(NC(=O)c4cnc(OCF)cn4)ccc3F)[C@@H]12` [Compound I-009] as the molecule, how does the Selectivity [1] read?
Answer: The Selectivity was 44.7.

Question: And the IC50 [1]?
Answer: Its IC50 is 0.0155 µM.

Question: What about the IC50 [2] of the same molecule?
Answer: The IC50 was 0.692 µM.

Question: With `NC1=N[C@](CF)(c2cc(NC(=O)c3cnc(OCF)cn3)ccc2F)[C@H]2[C@H](CF)OCC[C@H]2O1` [Compound I-010] as the molecule, how does the Selectivity [1] read?
Answer: Its Selectivity is 42.7.

Question: What about the IC50 [1] of the same molecule?
Answer: The IC50 was 0.0107 µM.

Question: And the IC50 [2]?
Answer: Its IC50 is 0.457 µM.

Question: Which Selectivity [1] does the source give for `C[C@@H]1OCC[C@H]2OC(N)=N[C@](CF)(c3cc(NC(=O)c4cnc(OCF)cn4)ccc3F)[C@@H]12` [Compound I-011] here?
Answer: Its Selectivity is 31.6.

Question: What about the IC50 [1] of the same molecule?
Answer: The IC50 was 0.0132 µM.

Question: What about the IC50 [2] of the same molecule?
Answer: Its IC50 is 0.417 µM.

Question: How did the Selectivity [1] turn out when `C[C@@H]1C[C@H]2OC(N)=N[C@](CF)(c3cc(NC(=O)c4cnc(OCF)cn4)cc(F)c3F)[C@H]2CO1` [Compound I-061] was run?
Answer: The Selectivity was 53.7.

Question: And the IC50 [1]?
Answer: The IC50 was 0.0174 µM.

Question: And the IC50 [2]?
Answer: Its IC50 is 0.933 µM.

Question: What does the source list for `COc1cnc(C(=O)Nc2ccc(Cl)c([C@@]3(CF)N=C(N)O[C@@H]4C[C@@H](C)OC[C@@H]43)c2)cn1` [Compound I-068]?
Answer: Selectivity [1]: 24.5; IC50 [1]: 0.0112 µM; IC50 [2]: 0.275 µM

Question: Which results are given for `COc1cnc(C(=O)Nc2ccc(F)c([C@@]3(CF)N=C(N)O[C@@H]4C[C@@H](C)OC[C@@H]43)c2)cn1` [Compound I-069]?
Answer: Selectivity [1]: 123; IC50 [1]: 0.0117 µM; IC50 [2]: 1.45 µM

Question: Which Selectivity [1] does the source give for `C[C@H]1COC[C@H]2[C@@H]1OC(N)=N[C@]2(CF)c1cc(NC(=O)c2cnc(OCF)cn2)ccc1F` [Compound I-074] here?
Answer: Its Selectivity is 36.3.

Question: What about the IC50 [1] of the same molecule?
Answer: The IC50 was 0.0043 µM.

Question: And the IC50 [2]?
Answer: The IC50 was 0.155 µM.

Question: Which Selectivity [1] does the source give for `C[C@@H]1COC[C@H]2[C@@H]1OC(N)=N[C@]2(CF)c1cc(NC(=O)c2cnc(OCF)cn2)ccc1F` [Compound I-075] here?
Answer: The Selectivity was 27.5.

Question: What about the IC50 [1] of the same molecule?
Answer: The IC50 was 0.026 µM.

Question: What about the IC50 [2] of the same molecule?
Answer: The IC50 was 0.724 µM.

Question: What does the source list for `NC1=N[C@](CF)(c2cc(NC(=O)c3cnc(OCC(F)(F)F)cn3)ccc2F)[C@H]2COCC[C@H]2O1` [Compound I-077]?
Answer: Selectivity [1]: 223; IC50 [1]: 0.0081 µM; IC50 [2]: 1.82 µM

Question: Which results are given for `NC1=N[C@](CF)(c2cc(NC(=O)c3ccc(OC(F)F)cn3)ccc2F)[C@H]2COCC[C@H]2O1` [Compound I-078]?
Answer: Selectivity [1]: 25.1; IC50 [1]: 0.0098 µM; IC50 [2]: 0.245 µM

Question: Which Selectivity [1] does the source give for `NC1=N[C@](CF)(c2cc(NC(=O)c3cnc(OCC(F)F)cn3)ccc2F)[C@H]2COCC[C@H]2O1` [Compound I-079] here?
Answer: Its Selectivity is 52.7.

Question: And the IC50 [1]?
Answer: Its IC50 is 0.0186 µM.

Question: And the IC50 [2]?
Answer: The IC50 was 1 µM.

Question: With `NC1=N[C@](CF)(c2cc(NC(=O)c3cnc(OCC4(F)CC4)cn3)ccc2F)[C@H]2COCC[C@H]2O1` [Compound I-086] as the molecule, how does the Selectivity [1] read?
Answer: Its Selectivity is 53.7.

Question: What about the IC50 [1] of the same molecule?
Answer: Its IC50 is 0.01 µM.

Question: And the IC50 [2]?
Answer: The IC50 was 0.537 µM.

Question: Which results are given for `C[C@@H]1C[C@H]2OC(N)=N[C@](CF)(c3cc(NC(=O)c4cnc(C(F)F)cn4)ccc3F)[C@H]2CO1` [Compound I-088]?
Answer: Selectivity [1]: 11.2; IC50 [1]: 0.055 µM; IC50 [2]: 0.617 µM

Question: Which Selectivity [1] does the source give for `C[C@@H]1C[C@H]2OC(N)=N[C@](CF)(c3cc(NC(=O)c4cnc(OC(F)F)cn4)ccc3F)[C@H]2CO1` [Compound I-089] here?
Answer: Its Selectivity is 56.2.

Question: And the IC50 [1]?
Answer: The IC50 was 0.0098 µM.

Question: And the IC50 [2]?
Answer: The IC50 was 0.55 µM.

Question: `CC[C@@H]1OCC[C@H]2OC(N)=N[C@](CF)(c3cc(NC(=O)c4cnc(OC(F)F)cn4)ccc3F)[C@@H]12` [Compound I-094] was tested. Which Selectivity [1] did it give?
Answer: Its Selectivity is 70.8.

Question: What about the IC50 [1] of the same molecule?
Answer: Its IC50 is 0.0059 µM.

Question: And the IC50 [2]?
Answer: The IC50 was 0.417 µM.

Question: `C[C@@H]1C[C@H]2OC(N)=N[C@](CF)(c3cc(NC(=O)c4ccc(C(F)(F)F)cn4)ccc3F)[C@H]2CO1` [Compound I-099] was tested. Which Selectivity [1] did it give?
Answer: The Selectivity was 28.8.

Question: And the IC50 [1]?
Answer: Its IC50 is 0.0191 µM.

Question: And the IC50 [2]?
Answer: Its IC50 is 0.55 µM.

Question: How did the Selectivity [1] turn out when `Cc1cc(C(F)(F)F)cnc1C(=O)Nc1ccc(F)c([C@@]2(CF)N=C(N)O[C@@H]3C[C@@H](C)OC[C@@H]32)c1` [Compound I-100] was run?
Answer: The Selectivity was 15.5.

Question: What about the IC50 [1] of the same molecule?
Answer: The IC50 was 0.0166 µM.

Question: What about the IC50 [2] of the same molecule?
Answer: The IC50 was 0.257 µM.

Question: How did the Selectivity [1] turn out when `C[C@@H]1C[C@H]2OC(N)=N[C@](CF)(c3cc(NC(=O)c4ncc(C(F)(F)F)cc4Cl)ccc3F)[C@H]2CO1` [Compound I-101] was run?
Answer: Its Selectivity is 14.1.

Question: And the IC50 [1]?
Answer: The IC50 was 0.0282 µM.

Question: What about the IC50 [2] of the same molecule?
Answer: Its IC50 is 0.398 µM.

Question: Which Selectivity [1] does the source give for `NC1=N[C@](CF)(c2cc(NC(=O)c3cnc(C(F)(F)F)cn3)ccc2F)[C@H]2COCC[C@H]2O1` [Compound I-102] here?
Answer: The Selectivity was 28.8.

Question: And the IC50 [1]?
Answer: Its IC50 is 0.0339 µM.

Question: What about the IC50 [2] of the same molecule?
Answer: The IC50 was 0.977 µM.

Question: For `NC1=N[C@](CF)(c2cc(NC(=O)c3cnc(C(F)F)cn3)ccc2F)[C@H]2COCC[C@H]2O1` [Compound I-103], which Selectivity [1] is on record?
Answer: Its Selectivity is 14.5.

Question: What about the IC50 [1] of the same molecule?
Answer: The IC50 was 0.0219 µM.

Question: What about the IC50 [2] of the same molecule?
Answer: The IC50 was 0.316 µM.

Question: `[2H]C([2H])([2H])Oc1cnc(C(=O)Nc2ccc(F)c([C@@]3(CF)N=C(N)O[C@@H]4CCOC[C@@H]43)c2)cn1` [Compound I-104] was tested. Which Selectivity [1] did it give?
Answer: The Selectivity was 27.5.

Question: And the IC50 [1]?
Answer: Its IC50 is 0.0145 µM.

Question: What about the IC50 [2] of the same molecule?
Answer: Its IC50 is 0.398 µM.

Question: With `Cc1cc(C(F)(F)F)cnc1C(=O)Nc1ccc(F)c([C@@]2(CF)N=C(N)O[C@@H]3CCOC[C@@H]32)c1` [Compound I-106] as the molecule, how does the Selectivity [1] read?
Answer: Its Selectivity is 10.2.

Question: What about the IC50 [1] of the same molecule?
Answer: The IC50 was 0.0142 µM.

Question: And the IC50 [2]?
Answer: Its IC50 is 0.148 µM.

Question: What does the source list for `NC1=N[C@](CF)(c2cc(NC(=O)c3cnc(C(F)(F)F)cn3)ccc2F)[C@H]2COCC[C@H]2O1` [Compound I-107]?
Answer: Selectivity [1]: 63.1; IC50 [1]: 0.0537 µM; IC50 [2]: 3.39 µM

Question: With `NC1=N[C@](CF)(c2cc(NC(=O)c3ncc(C(F)(F)F)cc3Cl)ccc2F)[C@H]2COCC[C@H]2O1` [Compound I-108] as the molecule, how does the Selectivity [1] read?
Answer: The Selectivity was 10.0.

Question: And the IC50 [1]?
Answer: The IC50 was 0.02 µM.

Question: What about the IC50 [2] of the same molecule?
Answer: Its IC50 is 0.2 µM.

Question: `CCOc1cnc(C(=O)Nc2ccc(F)c([C@@]3(CF)N=C(N)O[C@@H]4CCOC[C@@H]43)c2)cn1` [Compound I-109] was tested. Which Selectivity [1] did it give?
Answer: Its Selectivity is 18.6.

Question: What about the IC50 [1] of the same molecule?
Answer: The IC50 was 0.0224 µM.

Question: And the IC50 [2]?
Answer: Its IC50 is 0.417 µM.

Question: `NC1=N[C@](CF)(c2cc(NC(=O)c3cnc(OCF)cn3)ccc2F)[C@H]2COC3(CC3)C[C@H]2O1` [II-1] was tested. Which Selectivity [1] did it give?
Answer: The Selectivity was 44.7.

Question: What about the IC50 [1] of the same molecule?
Answer: Its IC50 is 0.0219 µM.

Question: And the IC50 [2]?
Answer: The IC50 was 0.977 µM.
